US20210308077A1, “COMBINATIONS INCLUDING BETA-ADRENORECEPTOR AGONISTS FOR TREATMENT OF PARKINSON`S DISEASE AND MOVEMENT DISORDERS” (The Brigham and Women`s Hospital, Inc., priority 2017, published 2021)
Entries after “also recorded” stand apart in the source; their conditions may differ.

Columns and labels:
[1] = tested on: Snca mRNA; experiment: Snca mRNA in rat primary cortical neurons; assay type: cell-based; conditions: metaproterenol 5 μM, clenbuterol 20 μM, salbutamol 10 μM, 48 hours
Method: Primary cortical cultures were generated from E18 Sprague-Dawley rat embryos. The cortical region was dissected out in Hank's Balanced Salt Solution buffered with Hepes and dissociated with 0.125% trypsin (Invitrogen) for 17 min at 37 ° C., followed by trituration. Dissociated cells were plated at a density of 5×10^5 cells/well or 2.5×10^5 cells/well in 12-well or 24-well plates, respectively precoated with poly-D lysine (100 μg/mL). The cells were cultured in Neurobasal medium with B-27 supplement (Invitrogen) and glutamax and gentamycin. Half of the medium was changed every 4 days. Cortical neurons were treated with β2AR agonists 10 days post plating. They were then harvested 48 hours post-treatment for mRNA extraction and 72 hours post-treatment for protein extraction.
Total RNA from flash-frozen mice brain tissue, rodent primary cells, human neuroblastoma cells and iPSC-derived neuronal cells was isolated using TRIzol® (Life Technologies) following the manufacturer's protocol. RNA concentration was measured using NanoDrop spectrophotometer (Thermo Fisher Scientific, Wilmington, De.). 2 μg of total RNA was reverse transcribed into cDNA using the High Capacity cDNA Reverse Transcription Kit from Applied Biosystems. Quantitative PCR was performed using TaqMan Universal PCR Master Mix (Applied Biosystems) on an ABI 7900HT instrument (Applied Biosystems) as described previously (31). For mouse brain tissue and rat primary cortical neuron samples, rodent-specific TaqMan Assay on-demand primers and probes were used to assay the relative abundance of target genes, and rodent Rp113 was used as a reference gene to normalize for RNA loading. Similar results were obtained when Actb or Ubc were used as controls for input RNA. For human neuroblastoma and iPSC-derived neuron samples, human TaqMan Assay on-demand probes were used to assay the relative abundance of target genes, and the geometric mean of the three human reference genes RPL13, GUSB and UBC was used to normalize for RNA loading. Expression values were analyzed using the comparative threshold cycle method (31).

[2] = pharmacokinetics mouse study (plasma and brain, LC-MS/MS); assay type: in vivo
Method: The clenbuterol pharmacokinetic (PK) study was done in wild-type C57BL/6J male mice by ChemPartner Co., LTD in Shanghai. The study was done with 4 groups of four mice; one control group and three treatment groups with clenbuterol administered via intraperitoneal injection at dosages of 1, 5 and 10 mg/kg once every 24 hours. Following completion of the administration schedule, blood samples were collected at various time points (e.g. 0.25, 2, 8, and 24 hours), from the four mice per group per time point (final time point of 24 hours post injection). Mice were sacrificed following each blood collection and brains were removed and snap frozen. Substantia nigra was utilized for SNCA mRNA and protein analysis, whereas the other portions were used for PK studies. Plasma and brain samples were analyzed by LC-MS/MS for compound concentration at each of three concentrations and at each time point. Standard pharmacokinetic parameters (e.g. AUClast, AUCINF, terminal elimination half-life (t1/2), clearance, volume of distribution, time at maximum observed plasma concentration, etc.) were determined in both plasma and brain tissueby WinNonlin V 6.2 statistics software (Pharsight Corporation, California, USA) using a non-compartmental model.

[3] = tested on: α-synuclein protein and mRNA in substantia nigra; experiment: placebo-controlled trial in wild-type mice, Snca expression in substantia nigra; assay type: in vivo, mouse
Method: Twenty C57BL/6J male mice (8 weeks old) (Jackson Laboratory, Bar Harbor Me.) were used for the placebo-controlled trial. Mice were exposed to a 12-hour light and 12-hour dark cycle, maintained at a constant temperature of 22° C., and were cared for in accordance with the National Institutes of Health Guide for the Care and Use of Laboratory Animals. Clenbuterol was purchased from Sigma (St. Louis, Mo.). Clenbuterol (10 mg/kg, injection volume 10 ml/kg) dissolved in saline was administered to mice (N=10) intraperitoneally. Saline was administered as a vehicle treatment (N=10). Mice were euthanized by CO224 hours post-injection. Brains were removed and snap frozen immediately in dry ice. Further dissections were performed on the frozen tissue to obtain substantia nigra regions. Tissue was then stored at −80° C. until mRNA or protein extraction was performed.
Total RNA from flash-frozen mice brain tissue, rodent primary cells, human neuroblastoma cells and iPSC-derived neuronal cells was isolated using TRIzol® (Life Technologies) following the manufacturer's protocol. RNA concentration was measured using NanoDrop spectrophotometer (Thermo Fisher Scientific, Wilmington, De.). 2 μg of total RNA was reverse transcribed into cDNA using the High Capacity cDNA Reverse Transcription Kit from Applied Biosystems. Quantitative PCR was performed using TaqMan Universal PCR Master Mix (Applied Biosystems) on an ABI 7900HT instrument (Applied Biosystems) as described previously (31). […] Expression values were analyzed using the comparative threshold cycle method (31).
Protein lysis buffer containing 320 mM sucrose, 5 mM NaF, 1 mM Na3VO4, 10 mM Tris (pH 7.4), 1 mM EGTA, and 1 mM EDTA was used for mice brain tissue lysis. […] Total protein concentrations were determined by BCA assay (Thermo Scientific) according to the manufacturer's instructions. Total α-synuclein was quantified using an α-synuclein-specific sandwich ELISA. […]

[4] = 10 mg/kg intraperitoneal, 24 hours, vs saline, n=10 per group

Row | Compound | endogenous Snca mRNA [1] | brain concentration ([2]; C57BL/6J mice, 10 mg/kg intraperitoneal vs 1 and 5 mg/kg) | brain/plasma ratio ([2]; C57BL/6J mice, 1, 5, or 10 mg/kg intraperitoneal, 24 hours) | blood-brain barrier crossing ([2]; wild type C57BL/6J mice, intraperitoneal) | endogenous α-synuclein mRNA in substantia nigra [3, 4] | endogenous α-synuclein protein in substantia nigra [3, 4] | α-synuclein protein in substantia nigra by Western blotting ([3]; anti-α-synuclein antibodies 2F12 and C-20)
1 | CC(C)(C)NCC(O)c1ccc(O)c(CO)c1 (centres unmarked) [Salbutamol, salbutamol] | significantly, but modestly, reduced |  |  |  |  |  | 
2 | CC(C)(C)NCC(O)c1cc(Cl)c(N)c(Cl)c1 (centres unmarked) [clenbuterol] | significantly, but modestly, reduced | highest | increased with doses of 1, 5, or 10 mg of drug per kilogram body weight; also recorded: highest brain/plasma ratio | crossed the blood-brain barrier | lowered | lowered | confirmed by Western blotting
